The inhibition is the drop in the measured response relative to a control, in per cent. A high value points to a strong effect.

The values that follow come from ChEMBL document CHEMBL5212743, “Selectivity Literature for EUbOPEN Chemogenomics Library wave 3” (2023).

Assay [1] has as its target Phosphatidylinositol 4,5-bisphosphate 3-kinase catalytic subunit beta isoform (Homo sapiens) (UniProt P42338). Nature of the assay: Selectivity interaction (KinomeScan (DiscoverX)) EUB0000014b PIK3CB. To be noted: at 1 µM.
The target in assay [2] is Serine/threonine-protein kinase PLK4 (Homo sapiens) (UniProt O00444). Nature of the assay: Selectivity interaction (KinomeScan (Ambit)) EUB0000687a PLK4. As to conditions: at 10 µM.
In assay [3] the target is Serine/threonine-protein kinase DCLK2 (Homo sapiens) (UniProt Q8N568). Nature of the assay: Selectivity interaction (KinomeScan (Ambit)) EUB0000687a DCLK2. To be noted: at 10 µM.
Assay [4] addresses T1, Mitogen-activated protein kinase 15 (Homo sapiens) (UniProt Q8TD08).
T1 sequence (whole entry): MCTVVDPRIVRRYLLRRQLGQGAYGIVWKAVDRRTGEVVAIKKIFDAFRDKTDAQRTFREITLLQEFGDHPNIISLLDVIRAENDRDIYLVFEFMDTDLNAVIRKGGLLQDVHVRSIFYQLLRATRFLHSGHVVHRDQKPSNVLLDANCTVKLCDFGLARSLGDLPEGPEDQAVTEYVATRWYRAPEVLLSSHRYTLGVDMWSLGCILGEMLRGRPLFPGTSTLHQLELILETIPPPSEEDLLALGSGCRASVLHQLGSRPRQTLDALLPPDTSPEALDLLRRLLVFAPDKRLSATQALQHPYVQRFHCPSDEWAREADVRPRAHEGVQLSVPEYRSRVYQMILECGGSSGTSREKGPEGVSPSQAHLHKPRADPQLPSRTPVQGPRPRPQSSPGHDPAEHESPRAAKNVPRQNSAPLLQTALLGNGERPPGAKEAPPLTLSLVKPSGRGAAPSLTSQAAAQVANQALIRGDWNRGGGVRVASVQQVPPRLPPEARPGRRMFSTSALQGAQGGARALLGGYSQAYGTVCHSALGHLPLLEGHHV
Nature of the assay: Selectivity interaction (Dundee panel (140 kinases and 19 lipid kinases)) EUB0000631a MAPK15. To be noted: at 1 µM.

Assay [5] deals with Serine/threonine-protein kinase 17A (Homo sapiens) (UniProt Q9UEE5). Nature of the assay: Selectivity interaction (Kinase panel (ProQinase)) EUB0000631a STK17A. As to conditions: at 1 µM.
Assay [6] deals with Mitogen-activated protein kinase kinase kinase 7 (Homo sapiens) (UniProt O43318). Nature of the assay: Selectivity interaction (Dundee panel (140 kinases and 19 lipid kinases)) EUB0000631a MAP3K7. As to conditions: at 1 µM.
Assay [7] addresses T2, Gamma-aminobutyric acid receptor subunit alpha-1 (Homo sapiens) (UniProt P14867).
T2 sequence (whole entry): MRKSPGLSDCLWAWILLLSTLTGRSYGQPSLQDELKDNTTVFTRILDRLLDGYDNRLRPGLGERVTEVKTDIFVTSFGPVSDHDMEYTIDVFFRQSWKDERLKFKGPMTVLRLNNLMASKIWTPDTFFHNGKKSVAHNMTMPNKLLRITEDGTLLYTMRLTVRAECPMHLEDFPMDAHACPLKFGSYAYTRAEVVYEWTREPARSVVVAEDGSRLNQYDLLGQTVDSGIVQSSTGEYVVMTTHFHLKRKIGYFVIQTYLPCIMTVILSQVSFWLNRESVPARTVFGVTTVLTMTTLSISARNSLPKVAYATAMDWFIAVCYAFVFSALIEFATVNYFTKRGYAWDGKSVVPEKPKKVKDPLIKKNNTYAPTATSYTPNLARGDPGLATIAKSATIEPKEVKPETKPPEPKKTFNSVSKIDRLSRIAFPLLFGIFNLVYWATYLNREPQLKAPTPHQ
Nature of the assay: Selectivity interaction (Eurofins CEREP Diversity Profiling (71 receptors, ion channels, and 25 other enzymes)) EUB0000231c GABRA1. To be noted: at 10 µM.

Assay [8] deals with cGMP-dependent 3',5'-cyclic phosphodiesterase (Homo sapiens) (UniProt O00408). Nature of the assay: Selectivity interaction (Eurofins CEREP Diversity Profiling (71 receptors, ion channels, and 25 other enzymes)) EUB0000231c PDE2A. To be noted: at 10 µM.
Assay [9] concerns the target T3, Adenosine receptor A1 (Homo sapiens) (UniProt P30542).
T3 sequence (whole entry): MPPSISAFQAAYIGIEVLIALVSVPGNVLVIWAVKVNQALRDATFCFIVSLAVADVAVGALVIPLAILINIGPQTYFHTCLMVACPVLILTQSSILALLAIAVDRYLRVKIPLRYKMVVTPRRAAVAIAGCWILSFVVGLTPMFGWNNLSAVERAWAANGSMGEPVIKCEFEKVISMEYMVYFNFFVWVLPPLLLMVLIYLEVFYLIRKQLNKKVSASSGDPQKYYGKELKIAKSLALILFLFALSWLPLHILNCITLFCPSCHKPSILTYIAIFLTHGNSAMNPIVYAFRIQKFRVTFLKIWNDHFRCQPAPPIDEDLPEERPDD
Nature of the assay: Selectivity interaction (Eurofins CEREP Diversity Profiling (71 receptors, ion channels, and 25 other enzymes)) EUB0000231c ADORA1. To be noted: at 10 µM.

Assay [10] deals with cGMP-inhibited 3',5'-cyclic phosphodiesterase 3A (Homo sapiens, UniProt Q14432). Nature of the assay: Selectivity interaction (Eurofins CEREP Diversity Profiling (71 receptors, ion channels, and 25 other enzymes)) EUB0000231c PDE3A. As to conditions: at 10 µM.
Assay [11] has as its target 3',5'-cyclic-AMP phosphodiesterase 4D (Homo sapiens) (UniProt Q08499). Nature of the assay: Selectivity interaction (Eurofins CEREP Diversity Profiling (71 receptors, ion channels, and 25 other enzymes)) EUB0000231c PDE4D. As to conditions: at 10 µM.
The target in assay [12] is Receptor-type tyrosine-protein kinase FLT3 (Homo sapiens) (UniProt P36888). Nature of the assay: Selectivity interaction (Kinase panel) EUB0000214b FLT3. To be noted: at […].
The target of assay [13] is Serine/threonine-protein kinase 38-like (Homo sapiens, UniProt Q9Y2H1). Nature of the assay: Selectivity interaction (KinomeScan (DiscoverX)) EUB0000317b STK38L. To be noted: at 1 µM.
The target of assay [14] is 5-hydroxytryptamine receptor 7 (Homo sapiens, UniProt P34969). Nature of the assay: Selectivity interaction (GPCR panel (PDSP screen)) EUB0000317b HTR7. As to conditions: at 10 µM.
Assay [15] deals with Casein kinase I isoform epsilon (Homo sapiens, UniProt P49674). Nature of the assay: Selectivity interaction (Radioisotope filter binding assay (Reaction Biology)) EUB0000696a CSNK1E. To be noted: at 1 µM.
Assay [16] deals with Substance-K receptor (Homo sapiens) (UniProt P21452). Nature of the assay: Selectivity interaction (CEREP panel (ligand receptors, ion channels, transporters)) EUB0000330a TACR2. To be noted: at 1 µM.
Sequence of Substance-K receptor (Homo sapiens) (P21452 whole entry): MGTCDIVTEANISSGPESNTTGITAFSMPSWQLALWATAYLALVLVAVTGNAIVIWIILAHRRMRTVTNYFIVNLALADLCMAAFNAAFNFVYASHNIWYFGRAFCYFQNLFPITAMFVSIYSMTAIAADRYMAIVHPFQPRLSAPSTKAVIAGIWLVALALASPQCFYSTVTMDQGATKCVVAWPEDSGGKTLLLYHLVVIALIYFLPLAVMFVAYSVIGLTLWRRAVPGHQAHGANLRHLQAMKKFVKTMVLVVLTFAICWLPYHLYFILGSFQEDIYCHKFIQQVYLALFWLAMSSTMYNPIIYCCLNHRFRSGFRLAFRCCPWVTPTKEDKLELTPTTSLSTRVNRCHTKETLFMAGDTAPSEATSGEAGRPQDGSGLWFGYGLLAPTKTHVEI
Another assay has as its target CREB-binding protein (Homo sapiens, UniProt Q92793). Nature of the assay: Selectivity interaction (Bromodomain panel (DSF assay)) EUB0000330a CREBBP. Background: DSF heats the sample and reads unfolding from a dye or from intrinsic fluorescence.
For assay [17], the target named is Tyrosine-protein kinase ABL1 (Homo sapiens, UniProt P00519). Nature of the assay: Selectivity interaction (KiNativ profiling (A375 live cells treatment assays)) EUB0000238b ABL1. To be noted: at 1 µM.
For assay [18], the target named is Tyrosine-protein kinase ABL2 (Homo sapiens) (UniProt P42684). Nature of the assay: Selectivity interaction (KiNativ profiling (A375 live cells treatment assays)) EUB0000238b ABL2. As to conditions: at 1 µM.
Sequence of Tyrosine-protein kinase ABL2 (Homo sapiens) (P42684 whole entry): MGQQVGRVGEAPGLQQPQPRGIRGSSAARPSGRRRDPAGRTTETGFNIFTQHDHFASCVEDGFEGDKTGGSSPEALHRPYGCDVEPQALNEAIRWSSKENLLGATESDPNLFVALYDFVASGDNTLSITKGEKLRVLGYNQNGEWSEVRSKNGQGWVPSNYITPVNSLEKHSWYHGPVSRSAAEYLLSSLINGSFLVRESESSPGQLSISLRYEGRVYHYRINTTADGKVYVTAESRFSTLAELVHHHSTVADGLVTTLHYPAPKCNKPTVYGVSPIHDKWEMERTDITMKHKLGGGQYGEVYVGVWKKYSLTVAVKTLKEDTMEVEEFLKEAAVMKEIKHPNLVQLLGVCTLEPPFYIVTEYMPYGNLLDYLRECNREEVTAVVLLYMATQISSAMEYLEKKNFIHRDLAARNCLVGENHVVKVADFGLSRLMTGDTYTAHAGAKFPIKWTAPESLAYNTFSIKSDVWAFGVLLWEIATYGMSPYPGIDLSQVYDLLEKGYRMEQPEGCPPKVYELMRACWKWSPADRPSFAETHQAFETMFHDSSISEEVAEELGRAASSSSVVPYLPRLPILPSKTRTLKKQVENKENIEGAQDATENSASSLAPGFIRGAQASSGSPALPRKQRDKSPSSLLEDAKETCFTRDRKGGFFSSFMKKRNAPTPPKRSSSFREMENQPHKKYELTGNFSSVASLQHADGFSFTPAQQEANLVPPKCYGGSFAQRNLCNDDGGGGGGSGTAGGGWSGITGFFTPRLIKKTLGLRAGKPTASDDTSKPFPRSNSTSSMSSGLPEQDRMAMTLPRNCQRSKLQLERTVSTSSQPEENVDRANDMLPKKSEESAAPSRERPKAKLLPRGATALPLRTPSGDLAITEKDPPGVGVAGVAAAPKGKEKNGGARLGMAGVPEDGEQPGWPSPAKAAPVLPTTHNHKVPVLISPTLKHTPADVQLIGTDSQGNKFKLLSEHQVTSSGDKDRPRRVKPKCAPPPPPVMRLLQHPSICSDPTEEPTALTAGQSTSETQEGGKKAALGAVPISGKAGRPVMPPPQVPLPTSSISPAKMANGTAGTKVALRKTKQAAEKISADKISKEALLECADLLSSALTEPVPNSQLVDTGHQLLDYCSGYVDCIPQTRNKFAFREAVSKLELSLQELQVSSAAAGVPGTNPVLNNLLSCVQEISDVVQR
The target of assay [19] is Tyrosine-protein kinase receptor Tie-1 (Homo sapiens) (UniProt P35590). Nature of the assay: Selectivity interaction (KinomeScan (DiscoverX)) EUB0000336a TIE1. As to conditions: at 1 µM.
The target of assay [20] is Serine/threonine-protein kinase Nek5 (Homo sapiens) (UniProt Q6P3R8). Nature of the assay: Selectivity interaction (KinomeScan (DiscoverX)) EUB0000336a NEK5. As to conditions: at 1 µM.
Sequence of Serine/threonine-protein kinase Nek5 (Homo sapiens) (Q6P3R8 whole entry, canonical isoform): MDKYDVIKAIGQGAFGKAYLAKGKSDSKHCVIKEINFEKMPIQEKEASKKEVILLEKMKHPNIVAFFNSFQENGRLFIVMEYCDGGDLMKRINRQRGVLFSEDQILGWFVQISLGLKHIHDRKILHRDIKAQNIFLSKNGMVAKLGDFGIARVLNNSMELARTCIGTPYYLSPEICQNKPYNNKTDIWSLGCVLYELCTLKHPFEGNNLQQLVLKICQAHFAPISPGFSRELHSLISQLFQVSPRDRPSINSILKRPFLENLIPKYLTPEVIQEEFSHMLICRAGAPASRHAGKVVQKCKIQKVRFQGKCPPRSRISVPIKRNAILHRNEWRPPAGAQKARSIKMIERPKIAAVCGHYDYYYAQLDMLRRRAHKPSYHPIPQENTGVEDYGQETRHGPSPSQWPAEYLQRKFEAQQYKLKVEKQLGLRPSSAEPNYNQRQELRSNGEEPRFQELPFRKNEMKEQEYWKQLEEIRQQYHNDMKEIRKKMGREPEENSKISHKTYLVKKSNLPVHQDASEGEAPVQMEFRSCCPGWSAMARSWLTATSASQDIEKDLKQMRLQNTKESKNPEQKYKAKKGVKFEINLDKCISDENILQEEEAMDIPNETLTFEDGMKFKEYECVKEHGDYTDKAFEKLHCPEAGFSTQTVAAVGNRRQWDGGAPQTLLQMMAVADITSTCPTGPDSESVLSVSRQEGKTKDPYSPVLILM
The target of assay [21] is Phosphatidylinositol 4,5-bisphosphate 3-kinase catalytic subunit alpha isoform (Homo sapiens, UniProt P42336). Nature of the assay: Selectivity interaction (KinomeScan (DiscoverX)) EUB0000336a PIK3CA. As to conditions: at 1 µM.
Sequence of Phosphatidylinositol 4,5-bisphosphate 3-kinase catalytic subunit alpha isoform (P42336 whole entry, canonical isoform): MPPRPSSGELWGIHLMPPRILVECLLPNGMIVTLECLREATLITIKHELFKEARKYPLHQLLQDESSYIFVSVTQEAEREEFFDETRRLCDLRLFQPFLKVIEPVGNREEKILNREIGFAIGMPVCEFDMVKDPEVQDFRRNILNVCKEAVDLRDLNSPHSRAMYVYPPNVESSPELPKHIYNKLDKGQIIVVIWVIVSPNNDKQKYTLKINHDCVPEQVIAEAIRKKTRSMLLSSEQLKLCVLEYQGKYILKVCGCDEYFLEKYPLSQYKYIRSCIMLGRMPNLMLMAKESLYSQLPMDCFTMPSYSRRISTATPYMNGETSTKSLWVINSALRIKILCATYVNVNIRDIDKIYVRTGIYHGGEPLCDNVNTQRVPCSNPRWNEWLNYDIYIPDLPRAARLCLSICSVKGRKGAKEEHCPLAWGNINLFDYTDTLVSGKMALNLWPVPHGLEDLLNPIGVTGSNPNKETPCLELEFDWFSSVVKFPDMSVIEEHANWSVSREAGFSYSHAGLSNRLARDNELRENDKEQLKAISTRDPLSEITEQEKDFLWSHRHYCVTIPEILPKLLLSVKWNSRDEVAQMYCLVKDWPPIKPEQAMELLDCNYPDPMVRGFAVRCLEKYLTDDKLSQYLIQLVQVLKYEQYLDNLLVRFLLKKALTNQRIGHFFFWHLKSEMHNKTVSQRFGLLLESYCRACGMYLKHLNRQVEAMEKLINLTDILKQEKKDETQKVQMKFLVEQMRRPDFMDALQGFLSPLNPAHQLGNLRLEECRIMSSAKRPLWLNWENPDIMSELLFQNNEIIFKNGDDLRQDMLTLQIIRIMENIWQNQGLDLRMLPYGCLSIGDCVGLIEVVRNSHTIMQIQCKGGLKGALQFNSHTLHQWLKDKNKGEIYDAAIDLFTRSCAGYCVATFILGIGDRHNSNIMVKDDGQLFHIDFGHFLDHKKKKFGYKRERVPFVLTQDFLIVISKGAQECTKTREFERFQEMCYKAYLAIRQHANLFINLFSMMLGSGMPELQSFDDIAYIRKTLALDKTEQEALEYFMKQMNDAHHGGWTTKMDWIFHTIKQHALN
Assay [22] deals with T4, Phosphatidylinositol 5-phosphate 4-kinase type-2 gamma (Homo sapiens) (UniProt Q8TBX8).
T4 sequence (whole entry): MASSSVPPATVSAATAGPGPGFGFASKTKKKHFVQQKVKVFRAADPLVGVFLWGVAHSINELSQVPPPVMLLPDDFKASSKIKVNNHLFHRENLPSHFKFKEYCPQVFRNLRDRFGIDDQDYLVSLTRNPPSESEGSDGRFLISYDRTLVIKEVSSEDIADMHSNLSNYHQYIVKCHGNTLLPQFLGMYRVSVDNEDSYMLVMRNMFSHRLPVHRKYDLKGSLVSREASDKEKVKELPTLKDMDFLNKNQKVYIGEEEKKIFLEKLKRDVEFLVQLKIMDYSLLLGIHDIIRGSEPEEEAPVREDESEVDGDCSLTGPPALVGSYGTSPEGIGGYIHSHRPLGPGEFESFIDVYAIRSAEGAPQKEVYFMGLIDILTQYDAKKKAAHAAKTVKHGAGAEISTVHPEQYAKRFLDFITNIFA
Nature of the assay: Selectivity interaction (KinomeScan (DiscoverX)) EUB0000336a PIP4K2C. As to conditions: at 1 µM.

For assay [23], the target named is Epidermal growth factor receptor (Homo sapiens, UniProt P00533). Nature of the assay: Selectivity interaction (KinomeScan (DiscoverX)) EUB0000336a EGFR. As to conditions: at 1 µM.
The target in assay [24] is 5-hydroxytryptamine receptor 2B (Homo sapiens, UniProt P41595). Nature of the assay: Selectivity interaction (GPCR panel (PDSP screen)) EUB0000336a HTR2B. As to conditions: at 1 µM.
Sequence of 5-hydroxytryptamine receptor 2B (P41595 whole entry): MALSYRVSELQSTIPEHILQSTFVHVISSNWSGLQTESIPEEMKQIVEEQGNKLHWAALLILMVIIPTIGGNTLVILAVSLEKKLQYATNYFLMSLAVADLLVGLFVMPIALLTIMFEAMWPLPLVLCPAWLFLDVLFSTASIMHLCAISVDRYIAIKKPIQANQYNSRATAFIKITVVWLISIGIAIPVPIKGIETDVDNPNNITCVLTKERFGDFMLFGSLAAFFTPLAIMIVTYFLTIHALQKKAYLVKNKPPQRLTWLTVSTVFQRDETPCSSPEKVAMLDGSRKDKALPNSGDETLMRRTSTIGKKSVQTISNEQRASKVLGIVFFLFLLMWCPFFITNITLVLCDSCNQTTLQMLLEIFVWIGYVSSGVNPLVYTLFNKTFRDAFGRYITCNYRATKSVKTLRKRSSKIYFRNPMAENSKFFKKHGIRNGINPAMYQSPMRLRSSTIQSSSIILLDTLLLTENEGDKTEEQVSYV
Assay [25] addresses SRSF protein kinase 2 (Homo sapiens) (UniProt P78362). Nature of the assay: Selectivity interaction (KinomeScan (DiscoverX)) EUB0000315b SRPK2. To be noted: at 1 µM.
The subject of assay [26] is Receptor-type tyrosine-protein kinase FLT3 (Homo sapiens), P36888 [UNDEFINED MUTATION]. Nature of the assay: Selectivity interaction (KinomeScan (DiscoverX)) EUB0000315b FLT3. As to conditions: at 1 µM.
The target of assay [27] is MAP/microtubule affinity-regulating kinase 3 (Homo sapiens) (UniProt P27448). Nature of the assay: Selectivity interaction (KinomeScan (DiscoverX)) EUB0000315b MARK3. To be noted: at 1 µM.

Sequence of Phosphatidylinositol 4,5-bisphosphate 3-kinase catalytic subunit beta isoform (Homo sapiens) (P42338 whole entry, looked up, canonical isoform): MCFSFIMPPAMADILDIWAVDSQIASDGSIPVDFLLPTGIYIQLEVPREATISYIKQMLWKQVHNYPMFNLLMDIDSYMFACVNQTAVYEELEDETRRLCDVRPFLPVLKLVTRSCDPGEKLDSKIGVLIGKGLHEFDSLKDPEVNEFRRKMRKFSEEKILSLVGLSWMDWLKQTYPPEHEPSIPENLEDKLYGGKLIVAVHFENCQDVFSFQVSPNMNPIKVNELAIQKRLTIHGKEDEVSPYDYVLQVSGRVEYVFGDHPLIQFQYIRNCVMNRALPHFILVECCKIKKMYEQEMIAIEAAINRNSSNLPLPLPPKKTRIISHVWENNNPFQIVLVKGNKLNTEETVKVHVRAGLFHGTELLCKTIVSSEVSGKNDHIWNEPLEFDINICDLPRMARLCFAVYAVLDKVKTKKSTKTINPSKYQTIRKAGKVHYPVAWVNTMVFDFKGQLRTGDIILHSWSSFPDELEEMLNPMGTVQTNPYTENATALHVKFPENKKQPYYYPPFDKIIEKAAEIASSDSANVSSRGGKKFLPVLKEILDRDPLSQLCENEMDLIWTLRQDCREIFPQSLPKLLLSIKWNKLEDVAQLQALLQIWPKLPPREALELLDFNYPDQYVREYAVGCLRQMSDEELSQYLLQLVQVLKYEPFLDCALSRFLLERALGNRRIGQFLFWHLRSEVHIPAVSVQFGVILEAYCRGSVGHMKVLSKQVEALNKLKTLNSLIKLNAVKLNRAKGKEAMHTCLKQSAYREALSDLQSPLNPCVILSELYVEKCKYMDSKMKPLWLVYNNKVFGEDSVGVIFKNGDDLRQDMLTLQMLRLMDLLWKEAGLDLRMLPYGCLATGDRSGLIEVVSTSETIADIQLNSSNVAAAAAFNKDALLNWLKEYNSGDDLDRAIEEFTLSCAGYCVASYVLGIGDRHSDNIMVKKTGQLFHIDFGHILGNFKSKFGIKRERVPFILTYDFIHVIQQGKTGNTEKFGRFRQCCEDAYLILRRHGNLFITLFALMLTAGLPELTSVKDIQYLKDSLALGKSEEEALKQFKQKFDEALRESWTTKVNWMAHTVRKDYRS

In [1], `Nc1ccc(C(=O)Nc2cccc(-c3nc(N4CCOCC4)c4oc5ncccc5c4n3)c2)cn1` displayed a % of control of 9.8%.
Take `CCOc1cc(C(=O)N2CCC(N3CCN(C)CC3)CC2)ccc1Nc1ncc2c(n1)N(C1CCCC1)c1ccccc1C(=O)N2C`: the % of control in assay [2] turned out to be 5.1%; in assay [3] it was 3.6%.
Regarding `CC(C)(O)CNc1ncc(-c2ccnc(Nc3ccnc(Cl)c3)n2)c(CC2CC2)n1`, the figures for the % of activity remaining in assay [4], in assay [5] and in assay [6] were 32%, 45% and 40%, respectively.
In the case of `CC(=O)c1cc(-c2cc(C(=O)NC3CC3)ccc2C)c2ncccn12`, the % of control in assay [7] came out at 47%; in assay [8], 25%; in assay [9], 14%; in assay [10], 48%; in assay [11], 28%.
`O=C(c1ccc(C(=O)N2CCC(N3CCCC3)CC2)c(Nc2ccccc2)c1)N1CCC(N2CCCC2)CC1`: the % of control in assay [12] was found to be 64%.
`Cc1cc(-n2nc(Cc3cc(F)cc(C(F)(F)F)c3)nc2C)ccc1C(N)=O` came in with a % of control in assay [13] of 49%. In assay [14], this compound returned an inhibition of 21%.
Consider `CC(C)Oc1ccc(-c2nn([C@@H](C)c3oc4ccc(F)cc4c(=O)c3-c3cccc(F)c3)c3ncnc(N)c23)cc1F`, for which, in [15], the % of control came to 39%.
Turning to `Cc1sc2c(c1C)C(c1ccc(Cl)cc1)=N[C@@H](CC(=O)OC(C)(C)C)c1nnc(C)n1-2`, the % bound fraction in [16] was 48%. The dTm on CREB-binding protein was determined as 1.04 K.
Turning to `CNc1cc(Oc2cc(C(=O)Nc3cc(N4CCN(C)CC4)cc(C(F)(F)F)c3)ccc2C)ncn1`, the % of inhibition in assay [17] and in [18] was 49% throughout.
Turning to `Cc1nc(Cc2cccc(C(F)(F)F)c2)sc1-c1ccc(C(N)=O)nc1`, the % of control in [19] came to 28%; in assay [20] it was 35%; in [21], 15%; in assay [22], 0.3%; in assay [23], 0%. The % of inhibition in [24] amounted to 34%.
As to `Cn1nc(C(F)(F)F)cc1-c1cnc(N2CCc3cc(S(=O)(=O)Nc4c(F)cc(Cl)cc4F)cc(N4CCCC4=O)c32)nc1`, the % of control in assay [25] stood at 34%; in assay [26], 32%; in [27], 12%.
